Measurements reported in ChEMBL document CHEMBL1141786, “Microbial transformation of curvularin” (J Nat Prod, 2005).
Active and inactive are the calls of the source.

Experiments:
Assay type in all cases: functional, cell-based
SF-268 = experiment: Cytotoxicity against human SF268 cells upto 10 ug/mL by MTT assay
MCF7 = experiment: Cytotoxicity against human MCF7 cells upto 10 ug/mL by MTT assay
NCI-H460 = experiment: Cytotoxicity against human NCI-H460 cells upto 10 ug/mL by MTT assay

Measured: Activity

CO[C@H]1[C@H](O)[C@@H](O)[C@H](Oc2cc(O)cc3c2C(=O)CCCCC[C@H](C)OC(=O)C3)O[C@@H]1CO
inactive: SF-268 | MCF7 | NCI-H460

C[C@H]1CCCCCC(=O)c2c(cc(O)cc2O[C@@H]2O[C@H](CO)[C@@H](O)[C@H](O)[C@H]2O)CC(=O)O1
inactive: SF-268 | MCF7 | NCI-H460

CO[C@H]1[C@H](O)[C@@H](O)[C@H](Oc2c(O)cc3c(c2O)C(=O)CCCCC[C@H](C)OC(=O)C3)O[C@@H]1CO
inactive: SF-268 | MCF7 | NCI-H460
